The subject of one series is hypoxic tissue. The experiment in a line: Reoxygenation of hypoxic tissue after low and high dose. Type of series: in vivo, human. Conditions: humans. The source says: With bipolar trans carotenoids such as TSC, there are discrete concentrations that produce efficacy in causing maximum oxygen partial pressure in animals or humans.
Series [1] can be described thus: Absorption into blood stream after intramuscular injection with gamma cyclodextrin. Type of series: in vivo, rat. The note with it: injected intramuscularly, rats. The source says:
The use of gamma-cyclodextrin with TSC increases the solubility of TSC in water by 3-7 times. […] The incorporation of the gamma cyclodextrin also allows for TSC to be absorbed into the blood stream when injected intramuscularly. Absorption is quick, and efficacious blood levels of TSC are reached quickly (as shown in rats).

The nature of series [2]: Change in partial pressure of oxygen, low vs high efficacious dose (FIG. 1). Type of series: in vivo. The note with it: FIG. 1 hyperoxic rat. How it is done: FIG. 1 illustrates the change in partial pressure of oxygen of a hyperoxic rat resulting from administration of a low efficacious dose amount compared to a high efficacious dose amount of TSC.
It has been discovered that for a mammal, there are two concentrations of a bipolar trans carotenoid, such as TSC, that result in increased oxygen partial pressure—the “low” dose and the “high” dose—in a tumor. For humans, the low dose range is 0.15-0.35 mg/kg and the high dose range is 0.75 to 2.0 mg/kg. Both doses result in approximately the same maximum increase in oxygen partial pressure.

A short description of series [3]: Stability of TSC versus pH. In kind it is physicochemical. Conditions: dependence on pH. How it is done: Mannitol can be used to adjust osmolality and its concentration varies depending on the concentration of other ingredients. The glycine is held constant. […] The use of glycine is compatible with lyophilization. Alternatively, the TSC and cyclodextrin is formulated using a 50 mM bicarbonate or other buffers, in place of the glycine.

The test system of series [4] is Cancer: Radiation Sensitizer. Kind of series: Pre-clinical efficacy study: Cancer: Radiation Sensitizer. In kind it is in vivo. From the text:
It has also been determined that several non-cancer disorders are beneficially treated utilizing an administration regimen of a bipolar trans carotenoid such as TSC, as described below.

Regarding `CC(/C=C/C=C(\C)C(=O)[O-])=C\C=C\C=C(C)\C=C\C=C(/C)C(=O)[O-].[Na+].[Na+]` [TSC, trans sodium crocetinate], the “duration of maximum reoxygenation” value in the series on hypoxic tissue (high dose of 0.75-2.0 mg/kg, e.g. 1.5 mg/kg) was “lasts for over an hour”; with hypoxic tissue (low dose of 0.15-0.35 mg/kg) it was “lasts for a short time”. In addition, the “time of maximum reoxygenation of hypoxic tissue after injection” value with hypoxic tissue (low dose of 0.15-0.35 mg/kg, e.g. 0.25 mg/kg) was 50 min. Besides, the “absorption into the blood stream” value in series [1] is reported as “quick”. In series [2], the “oxygen partial pressure, duration of maximum” value is listed as “sustained maximum oxygen partial pressure”. Also, in series [3], the stability entry is given as “more stable at higher pHs”. The “Best Dosage” value in series [4] (Mouse) and in series [4] (Rat) was “Low” throughout.
